Source: patent publication US7879887B2, “α-amino acid derivatives and medicaments containing the same as an active ingredient” (Nissan Chemical Industries, Ltd., priority 2006, dated 2011)

Tests used:
CDK3/Cyclin E complex = molecular target: T1, CDK3/Cyclin E complex (Homo sapiens, UniProt Q00526); experiment: In vitro kinase assay, CDK3/Cyclin E complex; assay type: biochemical; conditions: recombinant protein (Upstate); read-out: CDK3/cyclinE IC50
T1 construct: purchased Upstate Inc. 14-487
Procedure: (§1) Inhibitory activity against Aurora A, CDK1/Cyclin B complex, CDK2/Cyclin E complex and CDK3/Cyclin E complex were measured by in vitro kinase assay using recombinant proteins.

leukemia cell line KG-1a = experiment: Cell proliferation inhibitory activity, KG-1a; assay type: cell-based; conditions: Homo sapiens, 96 h, cells counted 4 days later with Cell Counting Kit-8
Procedure: (§2) Evaluations were carried out using colon carcinoma cell line SW620 (Cat. No. CCL-227), lung carcinoma cell line NCI-H460 (Cat. No. HTB-177), prostate cancer cell line DU 145 (Cat. No. HTB-81), breast cancer cell line MDA-MB-231 (Cat. No. HTB26) and leukemia cell line KG-1a (Cat. No. CCL-246.1) purchased from ATCC, pancreatic cancer cell line MIAPaCa-2 (Cat. No. CRL-1420) purchased from Dainippon Pharmaceutical, and ovarian cancer cell line IGROV1 received from the Netherland Cancer Institute. The cells were cultured under the conditions recommended by the supplier for each cell line, or with respect to IGROV1, according to the method described in Cancer Res. 59: 4559-4563, 1999. Cells suspended in media were added to solutions containing the test substances at various concentrations followed by culturing in a 5% CO2 incubator at 37° C. The numbers of cells were counted 4 days later with the Cell Counting Kit-8. IC50 values were calculated by assigning measured values in the case of not containing a test substance to an inhibition of 0%, and assigning measured values in the case of not containing a test substance or cells to an inhibition of 100%.

CDK1/Cyclin B complex = molecular target: T2, CDK1/Cyclin B complex (Homo sapiens, UniProt P06493); experiment: In vitro kinase assay, CDK1/Cyclin B complex; assay type: biochemical; conditions: recombinant protein (Upstate)
T2 construct: purchased Upstate Inc. 14-450
Procedure: (§3) Inhibitory activity against Aurora A, CDK1/Cyclin B complex, CDK2/Cyclin E complex and CDK3/Cyclin E complex were measured by in vitro kinase assay using recombinant proteins. The assays were carried out by using recombinant proteins (Upstate Inc.) for Aurora A, CDK1/Cyclin B complex, CDK2/Cyclin E complex and CDK3/Cyclin E complex (respective cat. nos. 14-511, 14-450, 14-448 and 14-487), in accordance with the procedure described in the product instructions thereof. The 50% inhibitory concentrations (IC50 values) were calculated by assigning measured values in the case of not containing a test compound to an inhibition of 0%, and assigning measured values in the case of not containing a test compound and enzyme to an inhibition of 100%.

CDK2/Cyclin E complex = CDK2/Cyclin E complex (Homo sapiens, UniProt P24941); experiment: In vitro kinase assay, CDK2/Cyclin E complex; assay type: biochemical; conditions: recombinant protein (Upstate); read-out: CDK2/cyclinE IC50
Procedure: as §1

[1] = system: lung carcinoma cell line NCI-H460; experiment: Cell proliferation inhibitory activity, NCI-H460; assay type: cell-based; conditions: Homo sapiens, 96 h, cells counted 4 days later with Cell Counting Kit-8
Procedure: as §2

[2] = system: colon carcinoma cell line SW620; experiment: Cell proliferation inhibitory activity, SW620; assay type: cell-based, human; conditions: Homo sapiens, SW-620, 96 h, cells counted 4 days later with Cell Counting Kit-8
Procedure: as §2

Aurora A = molecular target: T3, Aurora A (Homo sapiens, UniProt O14965); experiment: In vitro kinase assay, Aurora A; assay type: biochemical; conditions: recombinant protein (Upstate)
T3 construct: purchased Upstate Inc. 14-511
T3 sequence (O14965 1-403): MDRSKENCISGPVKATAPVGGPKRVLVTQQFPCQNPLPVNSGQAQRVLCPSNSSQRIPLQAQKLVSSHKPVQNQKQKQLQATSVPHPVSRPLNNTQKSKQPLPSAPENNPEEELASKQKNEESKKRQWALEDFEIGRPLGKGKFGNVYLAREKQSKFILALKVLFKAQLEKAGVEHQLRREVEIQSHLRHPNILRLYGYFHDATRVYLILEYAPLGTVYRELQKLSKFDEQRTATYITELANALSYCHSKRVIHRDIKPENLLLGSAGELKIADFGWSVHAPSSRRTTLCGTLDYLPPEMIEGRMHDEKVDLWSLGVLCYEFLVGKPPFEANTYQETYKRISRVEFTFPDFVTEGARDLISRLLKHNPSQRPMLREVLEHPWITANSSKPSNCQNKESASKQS
Procedure: as §3

recombinant human βARK1 = molecular target: T4, recombinant human βARK1 (Homo sapiens, UniProt P25098); experiment: Inhibitory activity against βARK1 (33P phosphorylation of synthetic peptide); assay type: biochemical; conditions: recombinant human βARK1, 60 minutes at room temperature
T4 construct: made in house; host or cells: Sf-9 insect cells (baculovirus, pBacPAK8)
T4 sequence (P25098 1-689): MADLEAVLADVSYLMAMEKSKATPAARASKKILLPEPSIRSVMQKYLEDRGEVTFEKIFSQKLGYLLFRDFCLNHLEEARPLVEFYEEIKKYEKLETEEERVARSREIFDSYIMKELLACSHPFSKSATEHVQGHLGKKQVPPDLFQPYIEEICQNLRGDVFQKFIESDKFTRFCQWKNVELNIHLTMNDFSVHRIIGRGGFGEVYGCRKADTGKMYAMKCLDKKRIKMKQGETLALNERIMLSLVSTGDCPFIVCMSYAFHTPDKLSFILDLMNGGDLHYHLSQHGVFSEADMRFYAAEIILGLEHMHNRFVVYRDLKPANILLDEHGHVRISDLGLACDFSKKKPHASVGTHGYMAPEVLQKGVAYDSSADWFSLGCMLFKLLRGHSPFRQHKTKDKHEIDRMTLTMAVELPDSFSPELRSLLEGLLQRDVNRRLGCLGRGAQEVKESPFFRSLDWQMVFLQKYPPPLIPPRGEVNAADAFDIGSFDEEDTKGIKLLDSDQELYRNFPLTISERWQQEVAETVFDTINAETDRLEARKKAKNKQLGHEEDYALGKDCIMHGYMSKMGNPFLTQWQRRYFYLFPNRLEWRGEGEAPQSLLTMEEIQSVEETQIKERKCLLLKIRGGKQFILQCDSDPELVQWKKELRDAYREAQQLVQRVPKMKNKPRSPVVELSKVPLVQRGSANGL
Procedure: Human βARK1 was amplified by PCR based on the base sequence of human βARK1 mRNA registered in GenBank (Accession No. M80776) using a human leukocyte cDNA library (Gibco BRL Cat. No. 10421-022) as a template. The amplified cDNA fragment was inserted into a pBacPAK8 vector (Clontech) to construct a plasmid.
Recombinant human βARK1 was expressed using the BacPAK Baculovirus Expression System (Clontech, Cat. No. K1601-1). 1×10^6 Sf-9 cells were adhered to a 35 mm dish in 2.5 mL of TMN-FH Insect Medium containing 10 vol % FBS (Pharminogen, Cat. No. PM-21227M) and cultured overnight at 27° C. On the following day, the medium was removed and 500 ng of the above plasmid, BacPAK6 viral DNA cleaved with Bsu36I (5 μL) and 1.5 mL of the same medium mixed with 4 μL of Bacfectin were added followed by culturing for 5 hours, further adding 1.5 mL of medium and subsequently culturing for 5 days. […] The culture supernatant after 5 days was recovered and a plaque assay was carried out to isolate single plaques. These were then infected into Sf-9 cells and the resulting culture supernatant was designated as Passage 1 (1−3×10^11 pfu/mL). Passage 1 was added to 3×10^7 Sf-9 cells to a multiplicity of infection (MOI) of 0.1 (pfu/cell), suspension culturing was carried out for 5 days using a spinner flask, and the resulting culture supernatant was designated as Passage 2 (4×10^10 pfu/mL) and used as a viral liquid for large-volume expression.
Sf-9 cells at 3×10^9 cells/200 mL were infected by adding Passage 2 to an MOI of 100 followed by addition of medium to bring to a liquid volume of 2 L and further culturing for 3 days. After recovering the cells by centrifugation and washing three times with PBS, the cells were suspended in 100 mL of Lysis Buffer (20 mmol/L HEPES-HCl (pH 7.2), 5 mmol/L EDTA, 3 mmol/L phenylmethylsulfonyl fluoride (PMSF)). After lysing the cells by ultrasonic treatment at low temperature, the supernatant was recovered by centrifuging (45,000×g, 15 minutes) (sup1). NaCl was added to the resulting supernatant to a final concentration of 250 mmol/L followed by ultracentrifugation (300,000×g, 60 minutes) and using the subsequent supernatant as a crude cell extract (sup2).
Purification was carried out with reference to the literature (Benovic, J. L., Methods Enzymol. 1991; 200: 351-362; Kim, C. M. et al., Receptor 1993; 3: 39-55; Sohlemann, P. et al., FEBS Letters 1993; 324: 59-62). The crude cell extract was accurately brought to a volume of 400 mL with Buffer C (20 mmol/L HEPES-HCl (pH 7.2), 5 mmol/L EDTA, 0.02 vol % Triton X-100) followed by loading onto a 50 mL SP-Sepharose FF (Amersham Pharmacia Biotech) column equilibrated with Buffer C. […] ETA was carried out on each fraction using anti-GRK2 antibody (Santa-Cruz Cat. No. SC-562) and the positive fractions were collected (GRK2=βARK1). This was then diluted three-fold with Buffer C and loaded on a 5 mL HiTrap Heparin column (Amersham Pharmacia Biotech) column equilibrated with Buffer C. After washing the column with Wash Buffer (100 mmol/L NaCl, Buffer C), the column was eluted with an NaCl concentration gradient (100 to 600 mmol/L NaCl for 100 minutes, flow rate: 1 mL/min). The positive fractions as determined by ETA were collected and stored in a freezer at −80° C.
A synthetic peptide having an amino acid sequence of biotinated-[…] was used in accordance with a previous report (Chen, C. Y. et al., J. Biol. Chem. 1993; 268: 7825-7831). This synthetic peptide can also be synthesized with reference to known synthesis methods (for example, Chen, C. Y. et al., J. Biol. Chem. 1993; 268: 7825-7831, Biochemistry 1991; 30: 5118-5125). 2 μl of a DMSO solution in which the test compound was diluted to as to be […] the final concentration was dispensed into a 96-well plate (round bottom) (Falcon 351190) (final concentration: 4 vol % DMSO). […]

[3] = system: prostate cancer cell line DU 145; experiment: Cell proliferation inhibitory activity, DU 145; assay type: cell-based, human; conditions: Homo sapiens, 96 h, cells counted 4 days later with Cell Counting Kit-8
Procedure: as §2

T1 sequence (Q00526 whole entry): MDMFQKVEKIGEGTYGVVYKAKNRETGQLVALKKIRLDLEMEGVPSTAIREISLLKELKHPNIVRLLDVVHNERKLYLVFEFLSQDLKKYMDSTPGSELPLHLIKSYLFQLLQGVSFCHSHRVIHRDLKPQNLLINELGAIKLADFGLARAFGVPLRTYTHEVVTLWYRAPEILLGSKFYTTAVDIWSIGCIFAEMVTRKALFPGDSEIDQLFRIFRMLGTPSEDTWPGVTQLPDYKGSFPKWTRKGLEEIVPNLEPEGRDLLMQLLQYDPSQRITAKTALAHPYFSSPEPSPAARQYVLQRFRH
T1 sequence (P24864 whole entry partner): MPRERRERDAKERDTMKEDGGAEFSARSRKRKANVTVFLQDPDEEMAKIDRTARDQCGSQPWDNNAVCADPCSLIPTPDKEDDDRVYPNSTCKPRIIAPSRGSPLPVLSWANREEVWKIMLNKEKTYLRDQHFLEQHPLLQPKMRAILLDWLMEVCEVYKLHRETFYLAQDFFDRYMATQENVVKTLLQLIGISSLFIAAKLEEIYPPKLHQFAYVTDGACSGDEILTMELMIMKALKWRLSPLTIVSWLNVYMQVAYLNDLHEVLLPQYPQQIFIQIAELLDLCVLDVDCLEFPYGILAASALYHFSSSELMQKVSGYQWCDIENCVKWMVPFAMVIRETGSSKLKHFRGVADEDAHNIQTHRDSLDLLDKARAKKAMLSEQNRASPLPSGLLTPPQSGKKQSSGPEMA
T2 sequence (P06493 whole entry): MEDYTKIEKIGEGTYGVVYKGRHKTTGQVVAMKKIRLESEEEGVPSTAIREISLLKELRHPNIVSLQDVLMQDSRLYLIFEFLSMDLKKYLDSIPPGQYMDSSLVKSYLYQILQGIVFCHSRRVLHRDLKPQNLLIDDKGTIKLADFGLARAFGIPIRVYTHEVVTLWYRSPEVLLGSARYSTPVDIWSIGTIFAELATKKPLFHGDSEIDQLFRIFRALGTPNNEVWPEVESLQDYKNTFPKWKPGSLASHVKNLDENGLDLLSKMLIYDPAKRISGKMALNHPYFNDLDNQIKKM
T2 sequence (P14635 whole entry partner): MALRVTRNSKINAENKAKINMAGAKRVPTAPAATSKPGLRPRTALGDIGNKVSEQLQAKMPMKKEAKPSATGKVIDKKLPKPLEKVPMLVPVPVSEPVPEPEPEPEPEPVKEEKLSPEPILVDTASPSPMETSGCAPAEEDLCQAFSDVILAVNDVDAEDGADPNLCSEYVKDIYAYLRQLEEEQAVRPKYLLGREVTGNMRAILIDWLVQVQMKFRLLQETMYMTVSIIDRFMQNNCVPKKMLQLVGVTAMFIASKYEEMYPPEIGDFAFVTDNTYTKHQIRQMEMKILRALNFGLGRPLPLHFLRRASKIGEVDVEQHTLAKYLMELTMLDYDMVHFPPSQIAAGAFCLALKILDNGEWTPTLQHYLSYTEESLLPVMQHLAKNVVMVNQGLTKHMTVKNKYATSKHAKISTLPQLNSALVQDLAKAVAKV

SMILES | IC50 (CDK3/Cyclin E complex) | IC50 (leukemia cell line KG-1a) | IC50 (CDK1/Cyclin B complex) | IC50 (CDK2/Cyclin E complex) | IC50 [1] | IC50 [2] | IC50 (Aurora A) | IC50 (recombinant human βARK1) | IC50 [3]
O=C(CNc1ccc(Cl)cc1)Nc1nc2ccc3[nH]ncc3c2s1 [compound 9] | 81 nM | < 100 nM | 372 nM | 40 nM |  |  |  |  | 
CC(C)CC(Nc1cccc(O)c1)C(=O)Nc1nc2ccc3[nH]ncc3c2s1 (centres unmarked) [compound 25] | 448 nM | < 100 nM |  | 366 nM | 3200 nM | 1600 nM | 137 nM |  | 
CC(=O)Nc1cc(NC(C(=O)Nc2nc3c(C(F)(F)F)cc4[nH]ncc4c3s2)c2ccccc2)ccc1Cl (centres unmarked) [compound 30] | 128 nM |  |  | 172 nM | 4100 nM | 1800 nM |  | 9.8 nM | 2700 nM
CCC(=O)Nc1cc(NC(C)(C)C(=O)Nc2nc3c(C(F)(F)F)cc4[nH]ncc4c3s2)ccc1Cl [compound 56] | 304 nM | 400 nM |  | 390 nM | 2500 nM | 1100 nM |  | 3.2 nM | 2500 nM
CC(C)(Nc1cccc(C(=O)NCC(=O)OCCO)c1)C(=O)Nc1nc2c(C(F)(F)F)cc3[nH]ncc3c2s1 [compound 86] | 85 nM |  | 483 nM | 274 nM |  |  | 66 nM |  | 
CC(C)(Nc1ccc(Cl)nc1)C(=O)Nc1nc2c(C(F)(F)F)cc3[nH]ncc3c2s1 [compound 96] | 277 nM |  |  | 347 nM | 3900 nM | 2300 nM |  |  | 3600 nM
CC(C)(Nc1ccc(Cl)c(-n2cc[nH]c2=O)c1)C(=O)Nc1nc2c(C(F)(F)F)cc3[nH]ncc3c2s1 [compound 97] | 279 nM |  |  |  |  |  |  | 12 nM | 
CC(C)(Nc1cccc(C(=O)NCCC(N)=O)c1)C(=O)Nc1nc2c(C(F)(F)F)cc3[nH]ncc3c2s1 [compound 101] | 21 nM |  | 39 nM | 30 nM |  | 2000 nM | 118 nM |  | 4400 nM
CC(C)(Nc1ccc(Cl)c(C(=O)NCCCS(N)(=O)=O)c1)C(=O)Nc1nc2c(C(F)(F)F)cc3[nH]ncc3c2s1 [compound 102] | 30 nM |  | 105 nM | 76 nM |  |  | 39 nM |  | 
CC(C)(Nc1ccc(Cl)c(C(=O)O)c1)C(=O)Nc1nc2c(C(F)(F)F)cc3[nH]ncc3c2s1 [compound 136] | 99 nM |  | 446 nM | 295 nM |  |  | 19 nM |  | 
CC(C)(Nc1ccc(Cl)c(C(=O)NCCC(=O)O)c1)C(=O)Nc1nc2c(C(F)(F)F)cc3[nH]ncc3c2s1 [compound 139] | 70 nM |  | 238 nM | 168 nM |  |  | 106 nM | 7.9 nM | 
CC(C)(Nc1cccc(C(=O)NCCCC(=O)O)c1)C(=O)Nc1nc2c(C(F)(F)F)cc3[nH]ncc3c2s1 [compound 140] | 160 nM |  | 446 nM | 428 nM |  |  | 247 nM |  | 
CC(C)(Nc1ccc(Cl)c(C(=O)NCC(=O)O)c1)C(=O)Nc1nc2c(C(F)(F)F)cc3[nH]ncc3c2s1 [compound 145] | 134 nM |  | 259 nM | 194 nM |  |  | 76 nM | 7.7 nM | 
